Consider ten compounds from patent US8063051B2, “9-substituted-8-oxo-adenine compounds as toll-like receptor (TLR7) modulators” (AstraZeneca AB, priority 2007, dated 2011).

The assay has as its target T1, Recombinant human TLR7 (Homo sapiens, UniProt Q9NYK1).
T1 construct: expressed in transfected cells; host or cells: HEK293 cell line stably expressing the pNiFty2-SEAP reporter plasmid; TLR7 in vector pUNO, blasticidin selection
T1 sequence (Q9NYK1 27-1049): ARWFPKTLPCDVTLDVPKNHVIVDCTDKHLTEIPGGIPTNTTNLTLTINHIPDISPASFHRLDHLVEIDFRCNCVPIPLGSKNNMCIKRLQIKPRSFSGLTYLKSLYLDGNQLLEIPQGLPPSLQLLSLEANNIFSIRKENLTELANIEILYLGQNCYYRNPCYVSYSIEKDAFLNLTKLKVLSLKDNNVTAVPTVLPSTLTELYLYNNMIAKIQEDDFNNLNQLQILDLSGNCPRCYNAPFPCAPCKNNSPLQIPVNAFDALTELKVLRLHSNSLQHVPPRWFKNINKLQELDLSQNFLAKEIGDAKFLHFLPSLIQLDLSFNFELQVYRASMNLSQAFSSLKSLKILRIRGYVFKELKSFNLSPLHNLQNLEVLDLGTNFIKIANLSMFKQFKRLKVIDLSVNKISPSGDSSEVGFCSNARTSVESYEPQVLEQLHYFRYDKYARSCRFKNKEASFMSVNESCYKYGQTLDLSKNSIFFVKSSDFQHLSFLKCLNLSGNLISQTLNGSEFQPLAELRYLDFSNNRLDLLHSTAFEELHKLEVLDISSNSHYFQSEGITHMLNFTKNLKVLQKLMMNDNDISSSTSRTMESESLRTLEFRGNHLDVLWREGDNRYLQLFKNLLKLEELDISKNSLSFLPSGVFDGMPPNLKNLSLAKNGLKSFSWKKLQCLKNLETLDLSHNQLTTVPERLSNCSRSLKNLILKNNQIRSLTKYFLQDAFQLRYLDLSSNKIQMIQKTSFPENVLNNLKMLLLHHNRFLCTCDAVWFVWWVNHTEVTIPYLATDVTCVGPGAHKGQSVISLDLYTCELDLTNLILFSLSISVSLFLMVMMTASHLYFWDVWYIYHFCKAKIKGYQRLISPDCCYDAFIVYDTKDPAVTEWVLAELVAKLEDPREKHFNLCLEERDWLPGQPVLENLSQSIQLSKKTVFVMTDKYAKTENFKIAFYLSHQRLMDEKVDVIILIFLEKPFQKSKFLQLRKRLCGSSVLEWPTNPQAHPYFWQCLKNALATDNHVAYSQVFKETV
The assay can be described thus: Human TLR7 assay (SEAP reporter in HEK293 cells). It counts as cell-based. The following applies: HEK293 cell line stably expressing human TLR7 and pNiFty2-SEAP reporter; SEAP induction after overnight incubation at 37° C., 0.1% (v/v) DMSO. From the text: Recombinant human TLR7 was stably expressed in a HEK293 cell line already stably expressing the pNiFty2-SEAP reporter plasmid; integration of the reporter gene was maintained by selection with the antibiotic zeocin. The most common variant sequence of human TLR7 (represented by the EMBL sequence AF240467) was cloned into the mammalian cell expression vector pUNO and transfected into this reporter cell-line. Transfectants with stable expression were selected using the antibiotic blasticidin. In this reporter cell-line, expression of secreted alkaline phosphatase (SEAP) is controlled by an NFkB/ELAM-1 composite promoter comprising five NFkB sites combined with the proximal ELAM-1 promoter. TLR signaling leads to the translocation of NFkB and activation of the promoter results in expression of the SEAP gene. TLR7-specific activation was assessed by determining the level of SEAP produced following overnight incubation of the cells at 37° C. with the standard compound in the presence of 0.1% (v/v) dimethylsulfoxide (DMSO). Concentration dependent induction of SEAP production by compounds was expressed as the concentration of compound which produced half of the maximal level of SEAP induction for that compound (pEC50).
For orientation: EC50 means the concentration needed to bring the measured effect to its halfway point. Turning to `CCCCOc1nc(N)c2[nH]c(=O)n(CCCN(Cc3ccccc3)C(C)=O)c2n1` [Example 1, N-[3-(6-Amino-2-butoxy-8-oxo-7,8-dihydro-9H-purin-9-yl)propyl]-N-benzylacetamide], the EC50 is 63.1 nM.

On to `CCCCOc1nc(N)c2[nH]c(=O)n(CCCN(Cc3ccccc3)C(=O)COC)c2n1` [Example 2, N-[3-(6-Amino-2-butoxy-8-oxo-7,8-dihydro-9H-purin-9-yl)propyl]-N-benzyl-2-methoxyacetamide], for which the EC50 is 50.1 nM.

For `CCCCOc1nc(N)c2[nH]c(=O)n(CCCN(Cc3ccccc3)C(=O)CCC(=O)OC)c2n1` [Example 3, Methyl 4-[[3-(6-amino-2-butoxy-8-oxo-7,8-dihydro-9H-purin-9-yl)propyl](benzyl)amino]-4-oxobutanoate], the EC50 is 39.8 nM.

With `CCCCOc1nc(N)c2[nH]c(=O)n(CCCN(Cc3ccccc3)C(=O)CCOC)c2n1` [Example 4, N-[3-(6-Amino-2-butoxy-8-oxo-7,8-dihydro-9H-purin-9-yl)propyl]-N-benzyl-3-methoxypropanamide], the EC50 was 79.4 nM.

For the compound `CCCCOc1nc(N)c2[nH]c(=O)n(CCCN(Cc3ccccc3)C(=O)CCC(=O)N(C)C)c2n1` [Example 5, N-[3-(6-Amino-2-butoxy-8-oxo-7,8-dihydro-9H-purin-9-yl)propyl]-N-benzyl-N′,N′-dimethylsuccinamide], the EC50 was 79.4 nM.

In the case of `CCCCOc1nc(N)c2[nH]c(=O)n(CCCN(Cc3ccccc3)C(=O)Cc3ccc(S(C)(=O)=O)cc3)c2n1` [Example 6, N-[3-(6-Amino-2-butoxy-8-oxo-7,8-dihydro-9H-purin-9-yl)propyl]-N-benzyl-2-[4-(methylsulfonyl)phenyl]acetamide], the EC50 is 79.4 nM.

Regarding `CCCCOc1nc(N)c2[nH]c(=O)n(CCCN(Cc3ccccc3)C(=O)CN3CCN(Cc4ccccc4)CC3)c2n1` [Example 7, N-[3-(6-Amino-2-butoxy-8-oxo-7,8-dihydro-9H-purin-9-yl)propyl]-N-benzyl-2-(4-benzylpiperazin-1-yl)acetamide], the EC50 was 7.94 nM.

As to `CCCCOc1nc(N)c2[nH]c(=O)n(CCCN(Cc3ccccc3)C(=O)Cn3nc(C)nc3C)c2n1` [Example 8, N-[3-(6-Amino-2-butoxy-8-oxo-7,8-dihydro-9H-purin-9-yl)propyl]-N-benzyl-2-(3,5-dimethyl-1H-1,2,4-triazol-1-yl)acetamide], the EC50 was 158 nM.

With `CCCCOc1nc(N)c2[nH]c(=O)n(CCCN(Cc3ccccc3)C(=O)CCc3cnccn3)c2n1` [Example 9, N-[3-(6-Amino-2-butoxy-8-oxo-7,8-dihydro-9H-purin-9-yl)propyl]-N-benzyl-3-pyrazin-2-ylpropanamide], the EC50 is 50.1 nM.

`CCCCOc1nc(N)c2[nH]c(=O)n(CCCN(Cc3ccccc3)C(=O)CCN(C)C)c2n1` [Example 10, N-[3-(6-Amino-2-butoxy-8-oxo-7,8-dihydro-9H-purin-9-yl)propyl]-N-benzyl-N^3,N^3-dimethyl-β-alaninamide]: the EC50 is 31.6 nM.
